Columns and labels:
C2C12 myotubes = test: Characterization of RNLE activity: pretreated extract, BrdU S phase reentry in C2C12 myotubes; type: cell-based, mouse; conditions: C2C12 myotubes with RNLE
Procedure: C2C12 myotubes were plated at low density in DM as described above. Regeneration extract was treated in one of three ways: (1) boiled for 5 minutes; (2) digested with 1% trypsin for 30 minutes at 37° C.; or (3) taken through several freeze/thaw cycles. In three separate experiments, the treated extracts were applied to cultured myotubes at a concentration of 0.3 mg/ml with media and extract changed daily. Immediately after the extract was digested with 1% trypsin, the trypsin was inactivated by dilution in DM in which the cells were cultured. In the freeze/thaw experiments, extract activity was tested after both 2 and 3 freeze/thaw cycles. The effect of the pretreated extracts on myotube S phase reentry was assessed after 4 days of treatment by performing BrdU incorporation assays. The results were compared to BrdU incorporation in myotubes cultured in DM containing RNLE (positive control) and myotubes cultured in DM alone or DM containing nonRNLE (negative controls).
The dedifferentiation signal(s) found in the RNLE could belong to a number of different types of biomolecules, including proteins, lipids, nucleic acids, and polysaccharides. To characterize the nature of one or more of the active components of the RNLE, the inventors subjected the extract to a number of different conditions. […]

[1] = tested on: zebrafish caudal fin regenerate; test: Zebrafish caudal fin regeneration under Fgfr1 inhibitor treatment; type: in vivo
Procedure: Zebrafish 3-6 months of age were obtained from EKKWill Waterlife Resources (Gibsonton, Fla.) and used for caudal fin amputations. Fish were anaesthetized in tricaine and amputations were made using a razor blade, removing one-half of the fin. Animals were allowed to regenerate for various times in water kept at 31-33° C.; these temperatures facilitate more rapid regeneration than more commonly used temperatures of 25-28° C. (Johnson and Weston, 1995). Fish were then anaesthetized and the fin regenerate was removed for analyses.
(§1) SU5402 (Ri; SUGEN, South San Francisco, Calif.) was dissolved in dimethylsulfoxide (DMSO) and added to fish water at a final concentration of 1.7 μM or 17 μM (0.01% DMSO). Up to 10 fish were treated in one liter of water, and tanks were maintained in the dark at 31-33° C. with SU5402 solutions replaced every 24 hours.
To determine if signaling through Fgfrl is required for regeneration, zebrafish were treated for 96 hours with Ri immediately following amputation. Treatment of zebrafish with 1.7 μM Ri (0.5 mg/liter) inhibited fin regeneration to varying degrees.
To determine if a blastema forms in the absence of Fgf signaling, Ri-treated fin regenerates were examined morphologically.
Because wfgf and fgfr1 expression domains were maintained in the fin regenerate during outgrowth, and as blastemal cell BrdU incorporation was blocked by Ri, Fgf signaling likely participates in blastemal maintenance/regenerative outgrowth. To test this hypothesis, the effects of Ri on ongoing regenerates were examined.

zebrafish fin regenerate [2] = test: BrdU incorporation in regenerating zebrafish fins; type: in vivo; conditions: 17 μM
Procedure: BrdU was dissolved in PBS and fish were treated at a final concentration of 100 μg/ml. For one experiment, fins were amputated and allowed to regenerate for 18 or 24 hours in the absence or presence of 17 μM Ri, with BrdU present during the final 6 hours of regeneration. To test the effects of Ri on proliferation in the established blastema, fins were first allowed to regenerate for 40 hours. Then, untreated fish regenerated an additional 2 hours before a 6 hour incubation with BrdU, while Ri-treated fish underwent a 2 hour R1 preincubation period before a 6 hour period with both Ri and BrdU.
Fins were collected and fixed in 70% ethanol/2 mM glycine overnight, and 10 μm sections were made from frozen blocks. These sections were stained for BrdU incorporation using a detection kit (Roche; Basel, Switzerland), and counterstained with hematoxylin. Sections from untreated and Ri-treated fins were simultaneously processed and developed. […]
BrdU incorporation was used to analyze DNA replication and cellular proliferation. […] To determine if blastemal cells underwent DNA replication in the presence of Ri, BrdU incorporation in fins briefly treated with Ri during regenerative outgrowth (40-48 hours postamputation) was analyzed. […]

zebrafish fin regenerate [3] = test: Whole mount in situ hybridization of marker genes in zebrafish fin regenerates; type: in vivo
Source text: To generate antisense RNA probes with a dioxigenin labeling kit (Boehringer Mannheim), a 2.8 kb fgfr1 cDNA fragment, a 1.7 kb fgfr2 cDNA fragment, a 0.6 kb fgfr3 cDNA fragment, a 1.5 kb fgfr4 cDNA fragment (Thisse et al., 1995), a 1.2 kb msxb cDNA fragment, a 2.0 kb msxc cDNA (Akimenko et al., 1995), a 0.6 kb fgf8(ace) cDNA fragment (Reifers et al., 1998), a 2.2 kb fgf4.1 cDNA (Draper et al., 1999), a 2.4 kb wfgf cDNA (Draper et al., 1999), a 3.8 kb β-catenin cDNA (Kelly et al., 1995), a 2.6 kb flkl cDNA fragment (Liao et al., 1997), and a 1.8 kb shh cDNA (Krauss et al., 1993) were used. Fragments containing zebrafish fgfr cDNA sequences were isolated by degenerate PCR using known fgfr tyrosine kinase domain sequences of other species. The assignment of fgfr genes was based on homology comparisons; these sequences have been deposited in Genbank.
Fin regenerates were fixed overnight at 4° C. in 4% paraformaldehyde in phosphate-buffered saline (PBS), washed briefly in 2 changes of PBS, and transferred to methanol for storage at −20° C. Fins were rehydrated stepwise through ethanol in PBS and then washed in 4 changes of PBS-0.1% polyoxyethylenesorbitan monolaurate (Tween-20; PBT). Then, fins were incubated with 10 μg/ml proteinase K in PBT for 30 minutes and rinsed twice in PBT before 20 minutes refixation. After five washes with PBT, fins were prehybridized at 65° C. for one hour in buffer consisting of 50% formamide, 5×SSC (750 mM NaCl, 75 mM sodium citrate, pH 7.0), 0.1% Tween-20, 50 μg/ml heparin, and 500 μg/ml yeast RNA (pH to 6.0 with citric acid), and then hybridized overnight in hybridization buffer including 0.5 μg/ml dioxigenin-labeled RNA probe. Fins were washed at 65° C. for 10 minutes each in 75% hybridization buffer/25% 2×SSC, 50% hybridization buffer/50% 2×SSC, and 25% hybridization buffer/75% 2×SSC, followed by 2 washes for 30 minutes each in 0.2×SSC at 65° C. Further washes for 5 minutes each were done at room temperature in 75% 0.2×SSC/25% PBT, 50% 0.2×SSC/50% PBT, and 25% 0.2×SSC/75% PBT. After a one hour incubation period in PBT with 2 mg/ml bovine serum albumin, fins were incubated for 2 hours in the same solution with a 1:2000 dilution of fin-preabsorbed, anti-dioxigenin antibody coupled to alkaline phosphatase (Boehringer Mannheim). For the alkaline phosphatase reaction, fins were first washed 3 times in reaction buffer (100 mM Tris-HCl pH 9.5, 50 mM MgCl2, 100 mM NaCl, 0.1% Tween-20, 1 mM levamisol) and then incubated in reaction buffer with 1× nitro blue terazolium/5-bromo-4-chloro-3-indolyl-phosphate (NBT/BCIP) substrate. In general, positive signals were obtained in 0.5-3 hours. Following the staining reaction, fins were washed in several changes of PBT and fixed in 4% paraformaldehyde in PBS. To obtain sections of fin regenerates, fins were first mounted in 1.5% agarose/5% sucrose and then incubated in 30% sucrose overnight. Frozen blocks were sectioned at 14 μm and observed using Nomarski optics.
For each probe, at least 7 fins were examined for expression at 0, 6, 12, 18, 24, 48, and 96 hours post-amputation. For 18, 24, and 48 hour timepoints with fgfr1, msxb, msxc, and wfgf probes, 25-100 fins were examined in several different experiments. Experiments with sense strand RNA probes were performed with initial antisense experiments to estimate the specificity of signals. To assess gene expression in pharmacologically treated fins, an equal number of untreated fins were also examined.
To investigate the molecular effects of this outgrowth inhibition by Ri, marker expression was examined following a 24 hour R1 application period. […] Similar effects on msxc expression were observed (n=8). msxb expression was not detected in 24 or 48 hour fin regenerates exposed to R1 for 48 hours (n=18). Thus, Fgf signaling is required for blastema maintenance and regenerative outgrowth, but is not crucial for other processes including melanocyte migration or bone deposition. […]

zebrafish embryos = test: Application to developing zebrafish embryos; type: in vivo; conditions: at the IC50 concentration (printed 10-20 μl)
Procedure: The IC50 of Ri with respect to Fgfrl activity in mammalian cells was shown previously to be […] (Mohammadi et al., 1997). […] Such embryos appear remarkably similar to those injected with mRNA encoding a dominant-negative Fgfrl (Griffin et al., 1995).

[4] = Tolerability of inhibitor solution in adult zebrafish; type: in vivo; conditions: 1.7 μM or 17 μM in fish water, 0.01% DMSO
Procedure: as §1

[5] = tested on: platelet-derived growth factor receptor; conditions: mammalian cells; cited from earlier work
[6] = molecular target: T1, epidermal growth factor receptor (Homo sapiens, UniProt P00533); conditions: mammalian cells; cited from earlier work
T1 construct: host or cells: mammalian cells (not specified)

insulin receptor = molecular target: T2, insulin receptor (Homo sapiens, UniProt P06213); conditions: mammalian cells; cited from earlier work
T2 construct: host or cells: mammalian cells (not specified)

serine threonine kinases = conditions: cited from earlier work
[7] = molecular target: Flkl, a vascular endothelial growth factor receptor (Homo sapiens, UniProt P35968); conditions: cited from earlier work
[8] = 1.7 μM (0.5 mg/liter), 96 hours from amputation, of 10 fins examined
[9] = Ri-treated fin regenerates, morphology
[10] = fins regenerated normally 24 or 48 hours, then 24 hour application, of 18 treated fins
[11] = treated from amputation, msxb: 21 fins, msxc: 8 fins

T1 sequence (P00533 25-1210): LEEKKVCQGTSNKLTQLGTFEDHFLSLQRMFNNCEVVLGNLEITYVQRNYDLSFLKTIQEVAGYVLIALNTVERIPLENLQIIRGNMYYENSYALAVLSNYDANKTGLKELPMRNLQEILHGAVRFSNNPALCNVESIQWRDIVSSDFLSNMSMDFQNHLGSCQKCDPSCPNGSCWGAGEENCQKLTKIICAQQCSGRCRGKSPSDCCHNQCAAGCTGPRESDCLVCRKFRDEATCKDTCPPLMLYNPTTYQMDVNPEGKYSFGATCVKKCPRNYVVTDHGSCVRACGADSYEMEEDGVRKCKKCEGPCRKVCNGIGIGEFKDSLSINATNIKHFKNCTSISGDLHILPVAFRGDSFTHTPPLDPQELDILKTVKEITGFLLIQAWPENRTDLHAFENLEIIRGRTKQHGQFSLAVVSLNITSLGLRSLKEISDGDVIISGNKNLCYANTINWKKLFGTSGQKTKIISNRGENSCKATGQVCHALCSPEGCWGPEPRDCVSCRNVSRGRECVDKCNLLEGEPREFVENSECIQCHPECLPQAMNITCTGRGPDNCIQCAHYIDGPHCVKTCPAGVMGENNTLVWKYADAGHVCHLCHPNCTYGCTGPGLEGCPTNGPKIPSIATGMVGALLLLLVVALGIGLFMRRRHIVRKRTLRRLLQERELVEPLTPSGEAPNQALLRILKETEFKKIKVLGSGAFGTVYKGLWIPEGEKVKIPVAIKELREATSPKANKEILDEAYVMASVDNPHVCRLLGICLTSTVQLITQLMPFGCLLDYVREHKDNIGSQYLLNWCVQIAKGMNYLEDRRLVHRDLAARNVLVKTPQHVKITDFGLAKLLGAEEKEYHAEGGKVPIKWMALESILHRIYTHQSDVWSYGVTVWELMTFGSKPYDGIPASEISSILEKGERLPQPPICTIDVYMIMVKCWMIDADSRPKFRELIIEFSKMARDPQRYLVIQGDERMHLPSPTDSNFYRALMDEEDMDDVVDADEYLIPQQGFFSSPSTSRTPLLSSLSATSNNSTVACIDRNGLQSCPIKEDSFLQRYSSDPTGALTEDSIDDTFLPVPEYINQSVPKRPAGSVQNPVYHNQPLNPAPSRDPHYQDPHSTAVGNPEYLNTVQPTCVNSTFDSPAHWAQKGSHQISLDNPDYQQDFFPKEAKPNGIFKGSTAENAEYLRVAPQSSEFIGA
T2 sequence (P06213 28-1382): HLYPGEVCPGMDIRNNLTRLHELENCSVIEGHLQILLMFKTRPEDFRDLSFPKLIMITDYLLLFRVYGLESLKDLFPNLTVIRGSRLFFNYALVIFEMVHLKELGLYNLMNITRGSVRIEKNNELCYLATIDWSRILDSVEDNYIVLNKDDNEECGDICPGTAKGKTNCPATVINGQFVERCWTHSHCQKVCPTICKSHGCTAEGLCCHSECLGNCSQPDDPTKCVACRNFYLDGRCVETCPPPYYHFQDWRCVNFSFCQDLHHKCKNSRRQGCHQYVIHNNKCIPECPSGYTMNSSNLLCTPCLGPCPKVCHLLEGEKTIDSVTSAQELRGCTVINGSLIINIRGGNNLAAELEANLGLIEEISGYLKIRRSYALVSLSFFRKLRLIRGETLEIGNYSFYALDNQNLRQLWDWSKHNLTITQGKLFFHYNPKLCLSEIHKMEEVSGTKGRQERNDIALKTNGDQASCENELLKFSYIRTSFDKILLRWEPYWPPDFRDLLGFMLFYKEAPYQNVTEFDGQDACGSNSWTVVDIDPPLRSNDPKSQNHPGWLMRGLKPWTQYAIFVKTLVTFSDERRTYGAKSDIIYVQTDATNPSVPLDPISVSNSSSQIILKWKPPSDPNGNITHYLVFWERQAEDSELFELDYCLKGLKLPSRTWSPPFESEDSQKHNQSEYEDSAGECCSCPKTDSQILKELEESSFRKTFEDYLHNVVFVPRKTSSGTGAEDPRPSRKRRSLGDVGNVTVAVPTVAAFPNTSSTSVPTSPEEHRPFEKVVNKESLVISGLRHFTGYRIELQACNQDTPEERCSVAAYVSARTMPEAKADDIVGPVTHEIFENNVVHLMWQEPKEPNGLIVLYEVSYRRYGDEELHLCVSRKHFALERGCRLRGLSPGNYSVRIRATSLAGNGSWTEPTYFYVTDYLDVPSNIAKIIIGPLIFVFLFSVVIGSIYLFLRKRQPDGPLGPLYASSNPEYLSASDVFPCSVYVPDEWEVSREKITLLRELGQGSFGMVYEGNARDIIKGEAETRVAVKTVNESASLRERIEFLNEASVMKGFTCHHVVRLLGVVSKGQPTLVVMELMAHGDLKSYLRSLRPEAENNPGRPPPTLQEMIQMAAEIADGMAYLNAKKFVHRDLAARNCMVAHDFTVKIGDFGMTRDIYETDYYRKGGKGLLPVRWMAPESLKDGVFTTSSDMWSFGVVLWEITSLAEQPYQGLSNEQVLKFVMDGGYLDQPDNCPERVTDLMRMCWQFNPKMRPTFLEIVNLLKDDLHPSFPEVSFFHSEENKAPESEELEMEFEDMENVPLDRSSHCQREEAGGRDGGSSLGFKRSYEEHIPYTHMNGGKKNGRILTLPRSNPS
Flkl, a vascular endothelial growth factor receptor, sequence (P35968 20-1356): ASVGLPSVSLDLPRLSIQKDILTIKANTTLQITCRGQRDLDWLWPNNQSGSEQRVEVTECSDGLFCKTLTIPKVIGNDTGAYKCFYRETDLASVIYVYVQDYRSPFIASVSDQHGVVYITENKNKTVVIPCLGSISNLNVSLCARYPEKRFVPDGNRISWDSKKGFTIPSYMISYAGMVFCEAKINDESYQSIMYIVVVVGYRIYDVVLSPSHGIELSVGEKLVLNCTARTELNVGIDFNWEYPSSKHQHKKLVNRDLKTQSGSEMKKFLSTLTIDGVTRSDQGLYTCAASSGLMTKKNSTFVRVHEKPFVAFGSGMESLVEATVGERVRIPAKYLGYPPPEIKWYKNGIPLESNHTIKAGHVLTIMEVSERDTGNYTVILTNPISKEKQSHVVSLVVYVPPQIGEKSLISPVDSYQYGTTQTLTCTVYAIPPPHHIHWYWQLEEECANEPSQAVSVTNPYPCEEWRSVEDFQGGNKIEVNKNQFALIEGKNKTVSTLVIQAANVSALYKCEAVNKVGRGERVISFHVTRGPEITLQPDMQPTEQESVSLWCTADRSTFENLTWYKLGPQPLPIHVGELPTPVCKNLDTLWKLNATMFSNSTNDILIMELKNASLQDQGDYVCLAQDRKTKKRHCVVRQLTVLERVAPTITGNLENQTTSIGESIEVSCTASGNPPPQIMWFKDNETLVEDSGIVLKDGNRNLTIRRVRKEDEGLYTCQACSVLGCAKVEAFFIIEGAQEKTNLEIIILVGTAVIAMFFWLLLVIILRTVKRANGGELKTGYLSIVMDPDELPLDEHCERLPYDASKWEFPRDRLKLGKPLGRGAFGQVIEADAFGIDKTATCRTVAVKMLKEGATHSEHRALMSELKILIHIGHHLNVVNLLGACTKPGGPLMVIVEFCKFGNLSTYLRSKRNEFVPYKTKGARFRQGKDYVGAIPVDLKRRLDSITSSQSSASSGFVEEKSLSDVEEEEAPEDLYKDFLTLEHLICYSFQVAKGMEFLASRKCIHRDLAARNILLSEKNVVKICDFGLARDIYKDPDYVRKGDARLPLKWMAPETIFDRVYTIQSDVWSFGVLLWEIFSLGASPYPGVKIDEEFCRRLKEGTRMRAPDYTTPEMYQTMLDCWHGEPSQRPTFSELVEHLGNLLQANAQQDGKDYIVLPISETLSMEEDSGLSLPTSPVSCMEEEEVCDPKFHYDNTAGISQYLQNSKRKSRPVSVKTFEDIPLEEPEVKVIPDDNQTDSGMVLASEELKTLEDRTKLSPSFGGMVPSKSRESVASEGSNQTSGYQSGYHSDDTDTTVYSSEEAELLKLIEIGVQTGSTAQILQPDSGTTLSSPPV

## Cc1c[nH]c(/C=C2\C(=O)Nc3ccccc32)c1CCC(=O)O [SU5402]
C2C12 myotubes
  BrdU: effect of Fgfr inhibitor on RNLE S phase reentry: No effect
[1]; [8]
  Fins that regenerated normally: 4
  Fins with a regenerative block: one
  Fins with slight regenerative defects: 5
[1]; 17 μM (5 mg/liter), 96 hours from amputation, all animals, n=9
  Fin regeneration: complete regenerative blocks
[1]; [9]
  Blastemal morphogenesis: did not occur
  Wound epidermis over the fin stumps: consistently formed
[1]; treatment of 24-72 hour fin regenerates
  Outgrowth of ongoing regenerates: inhibited further outgrowth
[1]; treatment of ongoing fin regenerates
  New bone deposition: not interrupted
Zebrafish fin regenerate [2]; 12-18 hours and 18-24 hours postamputation
  Proximal mesenchymal cell BrdU labeling: Normal
Zebrafish fin regenerate [2]; brief treatment during regenerative outgrowth, 40-48 hours postamputation
  Blastemal cell incorporation of BrdU: greatly reduced
Zebrafish fin regenerate [3]; 24 or 48 hour fin regenerates exposed for 48 hours, n=18
  msxb expression after 48 hour exposure: not detected
Zebrafish fin regenerate [3]; 48 or 72 hour fin regenerates treated for 24 hours, of 18 fins
  Fins with detectable shh transcripts: 0
Zebrafish fin regenerate [3]; 48 or 72 hour regenerates, 24 hour application, n=16
  Epidermal wfgf expression: No significant reduction
Zebrafish fin regenerate [3]; Ri-treated fins, n=7
  β-catenin expression: normal
Zebrafish fin regenerate [3]; [10]
  Fins with low levels of msxb expression: 8
  Fins with no detectable msxb expression: 10
Zebrafish fin regenerate [3]; [11]
  msxb and msxc expression, 24 hour regenerates: extremely low or undetectable
  msxb and msxc expression, 48 hour regenerates: undetectable
Zebrafish embryos
  Effect on developing zebrafish embryos: dramatic truncation of posterior structures
[4]
  Survival and behavior in inhibitor solution: survived normally and demonstrated no unusual behavior
[5]
  Concentration at which platelet-derived growth factor receptor is not blocked: greater than 50 μM
[6]
  Concentration at which epidermal growth factor receptor is not blocked: greater than 50 μM
Insulin receptor
  Concentration at which insulin receptor is not blocked: greater than 50 μM
Serine threonine kinases
  Effects on activities of numerous serine threonine kinases: no effects
[7]
  Concentration that inhibits Flkl: 10 to 20 µM

Reference: patent US20080227738A1, “Compositions and methods for cell dedifferentiation and tissue regeneration” (University of Utah Research Foundation, priority 2000, published 2008)
